# Measured values: patent US7671057B2, “Therapeutic agent for type II diabetes comprising protease-inhibiting compound” (Ono Pharmaceutical Co., Ltd., priority 2004, dated 2010)
# Marks after values point to notes of the source that are not given here.
# Columns and labels:
# Format in all cases: in vivo, mouse
# KK-A^y/Ta Jcl mice [1] = test: Blood-sugar level after single and repeated oral administration (Example 1)
# Experimental: On the day of initiation of administration (Day 1 of Administration), the obese/spontaneously type II diabetic mice; KK-A^y/Ta Jcl mice (male, 6-weeks aged, n=8) were treated through individual oral administration of the Test Compound 1 (ethyl N-allyl-N—[(E)-2-methyl-3-[4-(4-amidinophenoxycarbonyl)-phenyl]propenoyl]aminoacetate/methanesulfonate) of the present invention and the Control Compound 1 (5-{4-[2-(5-ethylpyridine-2-yl)ethoxy]benzyl}-1,3-thiazolidine-2,4-dione; pioglitazone) at the daily dose of 30 mg/kg, or the control medium (0.5% CMC), and blood was drawn from each animal through the orbital venous plexus 6 hours after administration. The blood-sugar levels were measured in accordance with the enzyme electrode method by use of Antosense II (manufactured by Daikin Kogyo KK of Japan). The said test was carried out while the animals were allowed free access to food and water.
# Following the above-described single administration, the repeated, once-a-day forced oral administration of each compound was performed at the same daily dose for the total period of 14 consecutive days. On Days 3 and 11, blood was drawn in the same manner as described above 6 hours after administration of each compound, followed by measurement of the blood-sugar level.
# (§1) The blood-sugar, TC, TG, IRI and IRG levels and the body weight were expressed as a mean value±standard deviation as calculated for each group of animals. With reference to the significance test between the group treated through administration of the medium and each group treated through administration of the compound, the F test was effected to analyze the data and then, the Student's t-test and Aspin-Welch's t-test were used in cases where the variance between the two groups was determined to be equal and unequal, respectively. Referring to the significance level, less than 5% (p<0.05) was considered significant, and the significance level was expressed as divided into the two events of less than 1% (**: p<0.01) and less than 5% (*: p<0.05).
# [2] = Body weight, administration as admixture with food (Example 2)
# Experimental: KK-A^y/Ta Jcl Mice (male, 6- to 7-weeks aged, the number of cases; 8 animals) were treated through individual administration, in the form of an admixture with a food, of the Test Compound 2 (N-allyl-N-{(2E)-3-[4-({4-[amino(imino)methyl]phenoxy}-carbonyl)phenyl]-2-methyl-2-propenoyl}glycine/dimethane-sulfonate) of the present invention and the Control Compound 1 (5-(4-[2-(5-ethylpyridine-2-yl)ethoxy]benzyl)-1,3-thiazolidine-2,4-dione; pioglitazone) at the daily dose of 16.8 mg/100 g-food for 7 consecutive days, whereby the control group was fed with an ordinary food alone.
# Blood was drawn from the tail vein individually on the day (Day 1) preceding to administration of the Test Compound in the form of an admixture with a food, and on Days 2, 5, 7 and 14 of administration, and the blood samples were subjected to measurement of the blood-sugar level in accordance with the same procedure as described in Example 1, while, at the same time, the animals were weighed.
# KK-A^y/Ta Jcl mice [3] = test: Plasma TC, TG, blood-sugar, IRI and IRG levels 3 hours subsequent to the glucose-loading test (Example 1); settings: 3 hours subsequent to glucose-loading test, after 14 days 30 mg/kg p.o.
# Experimental: As from Day 14 afterwards, the animals after being fasted for 18 hours or more were loaded orally with a glucose solution (2 g/kg, 10 mL/kg), whereby the blood-sugar levels were measured before, and 120 min. after, the said glucose loading. Each of the compounds was given orally to the animals 3 hours prior to the glucose loading, and the whole blood was drawn from each of the animals under anesthesia. Each of the said blood samples was centrifuged to yield a blood plasma, and the resultant blood plasmas were all preserved under freezing in a ultra-low-temperature freezer for subsequent use in the below-described measurements.
# The blood-sugar level, total cholesterol level (hereinafter referred to briefly as “TC level”) and triglyceride level (hereinafter referred to briefly as “TG level”) were detected individually in accordance with the hexokinase/G-6-PDH method, enzyme method and GPO/HDAOS method, and measured with use of Biochemical Auto-Analyzer (Model AU 400, manufactured by Olympus Co. of Japan). The plasma insulin level (hereinafter referred to briefly as “IRI level”) and the plasma glucagon level (hereinafter referred to briefly as “IRG level”) were detected individually with the ELISA method (Lebisinsulin Mouse Insulin Kit, produced by K.K. Shibayagi of Japan) and the ELISA method (YK090 Glucagon EIA Kit, produced by K.K. Yanaihara Kenkyuu-sho of Japan), followed by measurement with use of a plate reader (Immuno Mini NJ-2300, Nalge Nunc International K.K. of Japan).
# as §1
# KK-A^y/Ta Jcl mice [4] = test: Blood-sugar level at satiety, dose-ranging food admixture up to Day 28 (Example 3); settings: for Blood-sugar level: end of the test (Day 28)
# Experimental: KK-A^y/Ta Jcl Mice (male, 6-weeks aged, the number of cases; 8 animals) were treated through individual administration, in the form of an admixture with a food, of the Test Compound 2 (N-allyl-N-{(2E)-3-[4-({4-[amino(imino)methyl]phenoxy}-carbonyl)phenyl]-2-methyl-2-propenoyl}glycine/dimethanesulfonate) of the present invention at the daily doses of 0.56 mg, 1.68 mg, 5.6 mg and 16.8 mg/100 g-food, respectively, and the Control Compound 1 (5-{4-[2-(5-ethylpyridine-2-yl)-ethoxy]benzyl}-1,3-thiazolidine-2,4-dion; pioglitazone) at the daily doses of 5.6 mg and 16.8 mg/100 g-food, respectively, […], whereby the control group was fed with an ordinary food alone.
# Blood was drawn from the tail vein individually on the day preceding to administration of each compound in the form of an admixture with a food, and on Days 6, 11, 16, 21 and 28 of administration.
# The blood samples taken from the tail vein on the respective specified days after the administration were subjected to measurement of the blood-sugar level in accordance with the method as described in Example 1, while the plasma glucagon level after the forced oral administration performed on Days 28 was measured in accordance with the ELISA method as described in Example 1. Also, the glycosylated hemoglobin (HbA1c) and GLP-1 levels were determined in accordance with the latex coagulation method and the ELISA method (YK160, GLP-1 EIA Kit, produced by K.K. Yanaihara Kenkyu-sho of Japan), respectively, while the TG level was measured in accordance with the method as described in Example 1. The total pancreatic insulin content after oral administration of each compound was determined by adding 75% ethanol to the isolated pancreas as frozen, followed by homogenization, and collecting the insulin fraction through Sep-Pak (C18; WATER) treatment of the supernatant liquid produced by centrifugation, followed by determination with the ELIZA method.
# [5] = repeated once-a-day oral 30 mg/kg, 6 hours after administration
smiles,measurement,setting,value
"CCc1ccc(CCOc2ccc(CC3SC(=O)NC3=O)cc2)nc1 (centres unmarked) [Control Compound 1, 5-{4-[2-(5-ethylpyridine-2-yl)ethoxy]benzyl}-1,3-thiazolidine-2,4-dione, reference compound]",Blood-sugar level before administration,"KK-A^y/Ta Jcl mice [1]; Day 1, before single oral administration of 30 mg/kg (baseline)",440.6 ± 24.3 mg/dL
same,Blood-sugar level Day 3,KK-A^y/Ta Jcl mice [1]; [5],224.4 ± 14.4 mg/dL
same,Blood-sugar level Day 11,KK-A^y/Ta Jcl mice [1]; [5],220.3 ± 8.2* mg/dL
same,Blood-sugar lowering action vs control medium group (in words),"KK-A^y/Ta Jcl mice [1]; single administration 30 mg/kg, 6 hours after administration",failed to elicit any significant blood-sugar lowering action
same,Blood-sugar level 6 hrs. after administration,"KK-A^y/Ta Jcl mice [1]; single oral administration, 30 mg/kg",287.9 ± 28.6 mg/dL
same,Body weight Day 2,[2]; 16.8 mg/100 g-food admixture,30.4 ± 0.7 g
same,Body weight Day 5,[2]; 16.8 mg/100 g-food admixture,33.3 ± 0.8 g
same,Body weight Day 7,[2]; 16.8 mg/100 g-food admixture,34.6 ± 0.6 g
same,Body weight Day 14,[2]; 16.8 mg/100 g-food admixture,39.4 ± 1.1 g
same,Body weight Day 1,"[2]; day preceding administration (baseline), 16.8 mg/100 g-food group",29.8 ± 0.7 g
same,Effect on body weight (in words),"[2]; food admixture 16.8 mg/100 g-food, time course",tendency to elevate the body weight
same,Blood-sugar level,KK-A^y/Ta Jcl mice [3],289.9 ± 20.6 mg/dL
same,IRG (plasma glucagon level),KK-A^y/Ta Jcl mice [3],488 ± 45.8 pg/mL
same,IRI (plasma insulin level),KK-A^y/Ta Jcl mice [3],1.25 ± 0.28 ng/mL
same,TC,KK-A^y/Ta Jcl mice [3],114.6 ± 4.8 mg/dL
same,TG,KK-A^y/Ta Jcl mice [3],72.7 ± 4.7 mg/dL
same,Blood-sugar lowering effect at the end of the test (Day 28) (in words),KK-A^y/Ta Jcl mice [4]; 16.8 mg/100 g group,no blood-sugar lowering effect observed
same,"Time-course changes in blood-sugar level at satiety vs Control Group (in words, FIG. 1)",KK-A^y/Ta Jcl mice [4]; 16.8 mg/100 g group,significant drops in blood-sugar level on Days 6 and 11
same,Blood-sugar level,KK-A^y/Ta Jcl mice [4]; Dose 5.6 (g/100 g-food),561.6 ± 28.2 mg/dL
same,Blood-sugar level,KK-A^y/Ta Jcl mice [4]; Dose 16.8 (g/100 g-food),497.0 ± 26.8 mg/dL
